Source: the supplement of paper PMC10307832

Assays:
Assay in all cases: relative viability (nuclei count vs DMSO), 5 days (fraction); higher = more cells survive
NCI-H2347 = test system: NCI-H2347
Summary of the method: (§1)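 Nuclei were stained with Hoechst during a one-step fixation (final 0.05% Triton X-100, 1% formaldehyde, 1 ug/ml Hoechst) carried out 5 days after dosing, then counted on 4× images. The cells, lung cancer lines in 1536-well plates, had been dosed by pin tool the day after seeding with one drug alone or a fixed anchor-drug dose plus five library-drug doses (not always all listed) in √10 steps. Relative viability is the nuclei count in treated wells divided by that in vehicle wells, and each value is the median of duplicate plates.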

UMC-11 = test system: UMC-11
Summary of the method: as §1

NCI-H838 = test system: NCI-H838
Summary of the method: as §1

NCI-H2009 = test system: NCI-H2009
Summary of the method: as §1

NCI-H647 = test system: NCI-H647
Summary of the method: as §1

HARA = test system: HARA
Summary of the method: as §1

HOP-62 = test system: HOP-62
Summary of the method: as §1

COR-L23 = test system: COR-L23
Summary of the method: as §1

NCI-H2228 = test system: NCI-H2228
Summary of the method: as §1

HCC-15 = test system: HCC-15
Summary of the method: as §1

NCI-H1734 = test system: NCI-H1734
Summary of the method: as §1

PC-14 = test system: PC-14
Summary of the method: as §1

COR-L 105 = test system: COR-L 105
Summary of the method: as §1

NCI-H1755 = test system: NCI-H1755
Summary of the method: as §1

NCI-H1355 = test system: NCI-H1355
Summary of the method: as §1

EKVX = test system: EKVX
Summary of the method: as §1

NCI-H1993 = test system: NCI-H1993
Summary of the method: as §1

With `O=C(O)c1ccc(-c2c[nH]c3ncc(-c4ccccc4)cc23)cc1C1CCCC1` + CC(C)C[C@H](NC(=O)[C@H](Cc1ccccc1)NC(=O)c1cnccn1)B(O)O [Bortezomib] (partner 0.002 µM) the relative viability (NCI-H2347; first compound 0.04 µM) was 1.03, the relative viability (NCI-H2347; first compound 0.1265 µM) was 1.32 and the relative viability (NCI-H2347; first compound 0.4 µM) was 0.869. The relative viability (NCI-H2347; first compound 1.265 µM) was 1.05, the relative viability (UMC-11; first compound 0.04 µM) was 0.747 and the relative viability (UMC-11; first compound 0.1265 µM) was 0.764. For the same molecule, the relative viability (UMC-11; first compound 0.4 µM) was 0.666, the relative viability (UMC-11; first compound 1.265 µM) was 0.519 and the relative viability (NCI-H838; first compound 0.04 µM) was 0.814. The relative viability (NCI-H838; first compound 0.1265 µM) was 1.32, the relative viability (NCI-H838; first compound 0.4 µM) was 0.703 and the relative viability (NCI-H838; first compound 1.265 µM) was 0.714. For the same molecule, the relative viability (NCI-H2009; first compound 0.04 µM) was 0.997, the relative viability (NCI-H2009; first compound 0.1265 µM) was 0.966 and the relative viability (NCI-H2009; first compound 0.4 µM) was 0.942. The relative viability (NCI-H2009; first compound 1.265 µM) was 0.794, the relative viability (NCI-H647; first compound 0.04 µM) was 0.896 and the relative viability (NCI-H647; first compound 0.1265 µM) was 1.19. The relative viability (NCI-H647; first compound 0.4 µM) was 1.3, the relative viability (NCI-H647; first compound 1.265 µM) was 0.772 and the relative viability (HARA; first compound 0.04 µM) was 1.05. For the same molecule, the relative viability (HARA; first compound 0.1265 µM) was 1.28, the relative viability (HARA; first compound 0.4 µM) was 1.1 and the relative viability (HARA; first compound 1.265 µM) was 1.08. For the same molecule, the relative viability (HOP-62; first compound 0.04 µM) was 1.01, the relative viability (HOP-62; first compound 0.1265 µM) was 0.725 and the relative viability (HOP-62; first compound 0.4 µM) was 0.93. It also gave a relative viability (HOP-62; first compound 1.265 µM) of 0.886, a relative viability (COR-L23; first compound 0.04 µM) of 0.962 and a relative viability (COR-L23; first compound 0.1265 µM) of 1.16. The relative viability (COR-L23; first compound 0.4 µM) was 0.906, the relative viability (COR-L23; first compound 1.265 µM) was 0.622 and the relative viability (NCI-H2228; first compound 0.04 µM) was 0.908. The relative viability (NCI-H2228; first compound 0.1265 µM) was 0.954, the relative viability (NCI-H2228; first compound 0.4 µM) was 1.32 and the relative viability (NCI-H2228; first compound 1.265 µM) was 0.414. For the same molecule, the relative viability (HCC-15; first compound 0.04 µM) was 0.985, the relative viability (HCC-15; first compound 0.1265 µM) was 1.05 and the relative viability (HCC-15; first compound 0.4 µM) was 1.08. For the same molecule, the relative viability (HCC-15; first compound 1.265 µM) was 0.731, the relative viability (NCI-H1734; first compound 0.04 µM) was 1.1 and the relative viability (NCI-H1734; first compound 0.1265 µM) was 1.02. For the same molecule, the relative viability (NCI-H1734; first compound 0.4 µM) was 0.83, the relative viability (NCI-H1734; first compound 1.265 µM) was 0.785 and the relative viability (PC-14; first compound 0.04 µM) was 0.917. It also gave a relative viability (PC-14; first compound 0.1265 µM) of 0.901, a relative viability (PC-14; first compound 0.4 µM) of 0.891 and a relative viability (PC-14; first compound 1.265 µM) of 0.758. It also gave a relative viability (COR-L 105; first compound 0.04 µM) of 0.775, a relative viability (COR-L 105; first compound 0.1265 µM) of 0.78 and a relative viability (COR-L 105; first compound 0.4 µM) of 0.788. For the same molecule, the relative viability (COR-L 105; first compound 1.265 µM) was 0.819, the relative viability (NCI-H1755; first compound 0.04 µM) was 1.01 and the relative viability (NCI-H1755; first compound 0.1265 µM) was 0.732. It also gave a relative viability (NCI-H1755; first compound 0.4 µM) of 0.997, a relative viability (NCI-H1755; first compound 1.265 µM) of 0.924 and a relative viability (NCI-H1355; first compound 0.04 µM) of 1.18. It also gave a relative viability (NCI-H1355; first compound 0.1265 µM) of 1.29, a relative viability (NCI-H1355; first compound 0.4 µM) of 1.22 and a relative viability (NCI-H1355; first compound 1.265 µM) of 1.04. It also gave a relative viability (EKVX; first compound 0.04 µM) of 1.01, a relative viability (EKVX; first compound 0.1265 µM) of 0.873 and a relative viability (EKVX; first compound 0.4 µM) of 1.03. For the same molecule, the relative viability (EKVX; first compound 1.265 µM) was 0.728, the relative viability (NCI-H1993; first compound 0.04 µM) was 1.18 and the relative viability (NCI-H1993; first compound 0.4 µM) was 1.14. The relative viability (NCI-H1993; first compound 1.265 µM) was 0.871.
`NC(=O)Nc1cc(-c2cccc(F)c2)sc1C(=O)N[C@H]1CCCNC1` [AZD7762] + CC(C)C[C@H](NC(=O)[C@H](Cc1ccccc1)NC(=O)c1cnccn1)B(O)O [Bortezomib] (partner 0.002 µM) gave a relative viability (NCI-H2347; first compound 0.01 µM) of 1.1, a relative viability (NCI-H2347; first compound 0.03162 µM) of 0.967 and a relative viability (NCI-H2347; first compound 0.1 µM) of 0.863. It also gave a relative viability (NCI-H2347; first compound 0.3162 µM) of 1.17, a relative viability (NCI-H2347; first compound 1 µM) of 0.685 and a relative viability (UMC-11; first compound 0.01 µM) of 0.692. The relative viability (UMC-11; first compound 0.03162 µM) was 0.585, the relative viability (UMC-11; first compound 0.1 µM) was 0.409 and the relative viability (UMC-11; first compound 0.3162 µM) was 0.632. For the same molecule, the relative viability (UMC-11; first compound 1 µM) was 0.435, the relative viability (NCI-H838; first compound 0.01 µM) was 0.773 and the relative viability (NCI-H838; first compound 0.03162 µM) was 0.814. For the same molecule, the relative viability (NCI-H838; first compound 0.1 µM) was 0.715, the relative viability (NCI-H838; first compound 0.3162 µM) was 0.724 and the relative viability (NCI-H838; first compound 1 µM) was 0.303. It also gave a relative viability (NCI-H2009; first compound 0.01 µM) of 0.904, a relative viability (NCI-H2009; first compound 0.03162 µM) of 1.13 and a relative viability (NCI-H2009; first compound 0.1 µM) of 1.08. For the same molecule, the relative viability (NCI-H2009; first compound 0.3162 µM) was 0.839, the relative viability (NCI-H2009; first compound 1 µM) was 0.794 and the relative viability (NCI-H647; first compound 0.01 µM) was 1.15. For the same molecule, the relative viability (NCI-H647; first compound 0.03162 µM) was 1.08, the relative viability (NCI-H647; first compound 0.1 µM) was 0.919 and the relative viability (NCI-H647; first compound 0.3162 µM) was 0.634. It also gave a relative viability (NCI-H647; first compound 1 µM) of 0.0894, a relative viability (HARA; first compound 0.01 µM) of 1.08 and a relative viability (HARA; first compound 0.03162 µM) of 1.11. The relative viability (HARA; first compound 0.1 µM) was 1.14, the relative viability (HARA; first compound 0.3162 µM) was 1.13 and the relative viability (HARA; first compound 1 µM) was 0.42. It also gave a relative viability (HOP-62; first compound 0.01 µM) of 0.817, a relative viability (HOP-62; first compound 0.03162 µM) of 0.605 and a relative viability (HOP-62; first compound 0.1 µM) of 0.491. It also gave a relative viability (HOP-62; first compound 0.3162 µM) of 0.725, a relative viability (HOP-62; first compound 1 µM) of 0.43 and a relative viability (COR-L23; first compound 0.01 µM) of 1.12. For the same molecule, the relative viability (COR-L23; first compound 0.03162 µM) was 0.981, the relative viability (COR-L23; first compound 0.1 µM) was 0.985 and the relative viability (COR-L23; first compound 0.3162 µM) was 0.905. It also gave a relative viability (COR-L23; first compound 1 µM) of 0.229, a relative viability (NCI-H2228; first compound 0.01 µM) of 1.04 and a relative viability (NCI-H2228; first compound 0.03162 µM) of 1.33. For the same molecule, the relative viability (NCI-H2228; first compound 0.1 µM) was 1.03, the relative viability (NCI-H2228; first compound 0.3162 µM) was 0.723 and the relative viability (NCI-H2228; first compound 1 µM) was 0.389. The relative viability (HCC-15; first compound 0.01 µM) was 1.01, the relative viability (HCC-15; first compound 0.03162 µM) was 0.95 and the relative viability (HCC-15; first compound 0.1 µM) was 0.898. The relative viability (HCC-15; first compound 0.3162 µM) was 0.937, the relative viability (HCC-15; first compound 1 µM) was 0.986 and the relative viability (NCI-H1734; first compound 0.01 µM) was 0.912. For the same molecule, the relative viability (NCI-H1734; first compound 0.03162 µM) was 1.04, the relative viability (NCI-H1734; first compound 0.1 µM) was 0.963 and the relative viability (NCI-H1734; first compound 0.3162 µM) was 0.821. For the same molecule, the relative viability (NCI-H1734; first compound 1 µM) was 0.527, the relative viability (PC-14; first compound 0.01 µM) was 0.848 and the relative viability (PC-14; first compound 0.03162 µM) was 0.925. It also gave a relative viability (PC-14; first compound 0.1 µM) of 0.932, a relative viability (PC-14; first compound 0.3162 µM) of 0.662 and a relative viability (PC-14; first compound 1 µM) of 0.357. The relative viability (COR-L 105; first compound 0.01 µM) was 0.904, the relative viability (COR-L 105; first compound 0.03162 µM) was 0.803 and the relative viability (COR-L 105; first compound 0.1 µM) was 0.836. The relative viability (COR-L 105; first compound 0.3162 µM) was 0.389, the relative viability (COR-L 105; first compound 1 µM) was 0.356 and the relative viability (NCI-H1755; first compound 0.01 µM) was 0.919. It also gave a relative viability (NCI-H1755; first compound 0.03162 µM) of 1.03, a relative viability (NCI-H1755; first compound 0.1 µM) of 1.05 and a relative viability (NCI-H1755; first compound 0.3162 µM) of 0.926. The relative viability (NCI-H1755; first compound 1 µM) was 0.384, the relative viability (NCI-H1355; first compound 0.01 µM) was 1.17 and the relative viability (NCI-H1355; first compound 0.03162 µM) was 1.23. The relative viability (NCI-H1355; first compound 0.1 µM) was 1.21, the relative viability (NCI-H1355; first compound 0.3162 µM) was 1.27 and the relative viability (NCI-H1355; first compound 1 µM) was 1.19. For the same molecule, the relative viability (EKVX; first compound 0.01 µM) was 0.996, the relative viability (EKVX; first compound 0.03162 µM) was 1.04 and the relative viability (EKVX; first compound 0.1 µM) was 0.974. For the same molecule, the relative viability (EKVX; first compound 0.3162 µM) was 0.912, the relative viability (EKVX; first compound 1 µM) was 0.688 and the relative viability (NCI-H1993; first compound 0.01 µM) was 1.2. For the same molecule, the relative viability (NCI-H1993; first compound 0.03162 µM) was 1.08, the relative viability (NCI-H1993; first compound 0.1 µM) was 1.07 and the relative viability (NCI-H1993; first compound 0.3162 µM) was 1.36. The relative viability (NCI-H1993; first compound 1 µM) was 0.841.
